Paper PMC7118210 (Frontiers in Pharmacology, 2020)
Like-named read-outs stand apart in the source and are kept apart here. Values belong to the molecule of their own block, whether it stands above or below them.

Experiments:
[1] = Multiple-dose pharmacokinetics in dogs; type: in vivo, Beagle dogs
Description: The optimal volume and activity in unit volume of enzyme solution [0.2 M acetic acid/water solution: 0.2 M ammonium acetate/water solution, 15:35 (v/v)] were determined through a pretest of the enzyme (rat plasma, 10 μl, 10 U μl^-1; dog plasma, 10 μl, 10 U μl^-1; human plasma, 20 μl, 20 U μl^-1; human urine, 10 μl, 10 U μl^-1). After enzyme incubation, 10 μl of IS solution was added to the plasma and urine samples (2 μg ml^-1 quercetin 3-β-D-glucoside for rat and dog plasma; 583 ng ml^-1 naringin-D4 and 160 ng ml^-1 naringenin-D4 for human plasma; and 9,710 ng ml^-1 naringin-D4 and 6,000 ng ml^-1 naringenin-D4 for human urine). To each fecal sample, 9-fold methanol-normal saline (2:1, v/v) was added, mixed (18,000 rpm, 15 min) by vortexing and centrifuged (10 min, 9,000 rpm, 4°C). Next, 10 μl IS solution (971 ng ml^-1 naringin-D4 and 600 ng ml^-1 naringenin-D4) was added to the supernatants of feces (200 μl) without enzyme incubation. […] The solid material was dissolved with acetonitrile-water (1:1, v/v) and injected into the ultra high-performance liquid chromatography coupled with triple quadrupole mass spectrometry (UHPLC/MS/MS) system as described below. The analysis of nonclinical and clinical samples was performed with a UHPLC/MS/MS system that consisted of a Shimadzu Nexera X2 ultra high-performance liquid chromatography (UHPLC) (Shimadzu Corp., Kyoto, Japan) coupled with an AB Sciex API4000 triple-quadrupole mass spectrometry (MS/MS) system (AB Sciex, Foster City, CA, USA) equipped with an electrospray ionization source and controlled by Analyst (v. 1.6.2) software. […] The injection volume was 10 μl with the flow rate of 0.3 ml min^-1 for plasma, and 0.4 ml min^-1 for urine and feces. The compounds were detected by multiple reaction monitoring in the negative ion electrospray mode. The electrospray source conditions were as follows: ion source gas1 30 psi, ion source gas2 60 psi, curtain gas 20 psi, collisionally activated dissociation (CAD) gas 8 psi, temperature 500°C, and ion spray voltage −4,500 V. Zero air was used for ion source gas1 and ion source gas2 and nitrogen for curtain gas and CAD gas. […] All pharmacokinetic and excretion parameters were expressed as mean ± standard deviation (SD). All mean and SD values were reported to three significant figures. The pharmacokinetic parameters were calculated using the Phoenix WinNonlin software (Version 6.4, Pharsight Corp., Cary, NC, USA) and compared using the Student's t-test (p < 0.05) in SPSS 18.0 (SPSS Inc., Chicago, IL, USA). […] For the multiple-dose studies, pharmacokinetic parameters included the mean plasma level at steady state, Tmax, t1/2, the percent fluctuation, and the accumulation index (Table 3). […] In addition, we compared the pharmacokinetic parameters obtained from males and females (Tables 4–6).

[2] = Excretion in human urine and feces (mass balance); type: in vivo; details: for time within which excreted: humans
Description: All blood samples were transferred into heparin-treated centrifuge tubes and centrifuged for 10 min at 4,000 rpm and 4°C. All human urine samples were mixed and transferred (4 ml) into storage tubes. All biological samples were stored at −80°C.
The optimal volume and activity in unit volume of enzyme solution [0.2 M acetic acid/water solution: 0.2 M ammonium acetate/water solution, 15:35 (v/v)] were determined through a pretest of the enzyme (rat plasma, 10 μl, 10 U μl^-1; dog plasma, 10 μl, 10 U μl^-1; human plasma, 20 μl, 20 U μl^-1; human urine, 10 μl, 10 U μl^-1). […] To each fecal sample, 9-fold methanol-normal saline (2:1, v/v) was added, mixed (18,000 rpm, 15 min) by vortexing and centrifuged (10 min, 9,000 rpm, 4°C). […] Then, all plasma, urine, and fecal samples were extracted with ethyl acetate (rat plasma, 800 μl; dog plasma, 1,000 μl; human plasma, 3,000 μl; human urine, 3,000 μl; human feces, 3,000 μl) for at least 3 min by vortexing, centrifuged for 10 min at 3,900 rpm and 4°C; supernatants were transferred into centrifuge tubes and dried with N2. The solid material was dissolved with acetonitrile-water (1:1, v/v) and injected into the ultra high-performance liquid chromatography coupled with triple quadrupole mass spectrometry (UHPLC/MS/MS) system as described below.
The analysis of nonclinical and clinical samples was performed with a UHPLC/MS/MS system that consisted of a Shimadzu Nexera X2 ultra high-performance liquid chromatography (UHPLC) (Shimadzu Corp., Kyoto, Japan) coupled with an AB Sciex API4000 triple-quadrupole mass spectrometry (MS/MS) system (AB Sciex, Foster City, CA, USA) equipped with an electrospray ionization source and controlled by Analyst (v. 1.6.2) software. […] The mobile phase consisted of 0.1% formic acid (v/v) in water (A) and 0.1% formic acid in acetonitrile (B) using a linear gradient of 90% A (0–0.5 min), 90 to 60% A (0.5–1.5 min), 60% to 40% A (1.5–3.5 min), 40% to 10% A (3.5–4.5 min), 10% A (4.5–5.5 min), 10% to 90% A (5.5–6.0 min), and 90% A (6.0–7.5 min) for plasma; and 80% A (0–0.2 min), 80 to 64% A (0.2–2.0 min), 64% to 63% A (2.0–4.4 min), 63% to 0% A (4.4–4.5 min), 0% A (4.5–5.5 min), 0% to 90% A (5.5–5.6 min), 90% A (5.6–5.9 min), 90% to 35% A (5.9–6.0 min), 35% A (6.0–6.2 min), 35 to 80% A (6.2–6.3 min), and 80% A (6.3–7.5 min) for urine and feces. The injection volume was 10 μl with the flow rate of 0.3 ml min^-1 for plasma, and 0.4 ml min^-1 for urine and feces. The compounds were detected by multiple reaction monitoring in the negative ion electrospray mode. The electrospray source conditions were as follows: ion source gas1 30 psi, ion source gas2 60 psi, curtain gas 20 psi, collisionally activated dissociation (CAD) gas 8 psi, temperature 500°C, and ion spray voltage −4,500 V. Zero air was used for ion source gas1 and ion source gas2 and nitrogen for curtain gas and CAD gas.
Next, 9-fold normal saline, instead of ninefold methanol-normal saline (2:1, v/v), was added to maintain enzyme activity in the feces. […] These samples were maintained at 37°C for 12 h.

[3] = parameters: method as in Liu M. et al., 2012; details: dogs, ref Liu M. et al., 2012, cited from earlier work
[4] = naringin 12.4 mg kg^-1 multiple dose, dog, female
[5] = naringin 12.4 mg kg^-1 multiple dose, dog, male
[6] = naringin 12.4 mg kg^-1 p.o. three times a day, multiple dose, dog
[7] = naringin 160 mg (high-fat diet) p.o., human
[8] = naringin 160 mg, three times a day, p.o., human

SMILES: C[C@@H]1O[C@@H](O[C@H]2[C@H](Oc3cc(O)c4c(c3)O[C@H](c3ccc(O)cc3)CC4=O)O[C@H](CO)[C@@H](O)[C@@H]2O)[C@H](O)[C@H](O)[C@H]1O [naringin, Naringin]
- accumulation in multiple-dose study ([1]; dogs): no significant accumulation
- CavSS [1, 4]: 22.1 ± 3.41 ng/mL
- Fluctuation [1, 4]: 370 ± 119%
- CavSS [1, 5]: 15.1 ± 2.53 ng/mL
- Fluctuation [1, 5]: 242 ± 8.10%
- CavSS [1, 6]: 18.6 ± 4.68 ng/mL
- Fluctuation ([1]; naringin 12.4 mg kg^-1 p.o. three times a day, multiple dose, dog, (CmaxSS−CminSS)/CavSS×100%): 306 ± 103%
- time within which excreted [2]: ≤ 48 h
- cumulative excretion in feces, Naringin ([2]; naringin 40 mg p.o., human): 0.122 ± 0.202 % of dose
- cumulative excretion in urine, Naringin ([2]; naringin 40 mg p.o., human): 0.067 ± 0.039 % of dose
- cumulative excretion in feces, Naringin ([2]; naringin 80 mg p.o., human): 0.023 ± 0.036 % of dose
- cumulative excretion in urine, Naringin ([2]; naringin 80 mg p.o., human): 0.037 ± 0.013 % of dose
- cumulative excretion in feces, Naringin [2, 7]: 9.85 ± 20.0 % of dose
- cumulative excretion in urine, Naringin [2, 7]: 0.025 ± 0.008 % of dose
- cumulative excretion in feces, Naringin ([2]; naringin 160 mg p.o., human): 0.016 ± 0.023 % of dose
- cumulative excretion in urine, Naringin ([2]; naringin 160 mg p.o., human): 0.027 ± 0.014 % of dose
- cumulative excretion in feces, Naringin [2, 8]: 0.563 ± 1.00 % of dose
- cumulative excretion in urine, Naringin [2, 8]: 0.034 ± 0.014 % of dose
- cumulative excretion in feces, Naringin ([2]; naringin 320 mg p.o., human): 0.126 ± 0.325 % of dose
- cumulative excretion in urine, Naringin ([2]; naringin 320 mg p.o., human): 0.033 ± 0.026 % of dose
- cumulative excretion in feces, Naringin ([2]; naringin 480 mg p.o., human): 0.023 ± 0.033 % of dose
- cumulative excretion in urine, Naringin ([2]; naringin 480 mg p.o., human): 0.012 ± 0.004 % of dose
- cumulative excretion percentage ([3]; in the forms of naringin, naringenin, and 4-hydroxyphenylpropionic acid): 60%
- time within which excreted [3]: ≤ 24 h

- accumulation in multiple-dose study ([1]; dog, in vivo): no significant accumulation
- CavSS [1, 4]: 50.7 ± 16.1 ng/mL
- CavSS [1, 5]: 49 ± 10.4 ng/mL
- CavSS [1, 6]: 49.8 ± 12.2 ng/mL
- time within which excreted [2]: ≤ 48 h
- cumulative excretion in feces, Naringenin [2, 8]: 1.83 ± 2.32 % of dose
- cumulative excretion in urine, Naringenin [2, 8]: 28.3 ± 43.2 % of dose
SMILES: O=C1C[C@@H](c2ccc(O)cc2)Oc2cc(O)cc(O)c21 [naringenin, Naringenin]
- time within which excreted [3]: ≤ 24 h
